Measured values taken from US8394404B2, “Adhesive material and adhesive preparation” (Nitto Denko Corporation, priority 2004, dated 2013).
“Also recorded” adds a separate entry of the source.

Experiment: in vitro permeability test using the skin removed from a mouse
Type: in vitro ADME
Conditions: adhesive preparation of the adhesive material of Example 3 with adhesive layer containing 5% ISDN
Description: Thus, the adhesive preparation of the present invention is useful as a percutaneously absorbable adhesive preparation for continuous administration of a drug into the body.
An adhesive preparation comprising the adhesive material of the above-mentioned Example 3, which has an adhesive layer containing 5% isosorbide dinitrate (ISDN) was prepared and subjected to an in vitro permeability test using the skin removed from a mouse.

SMILES: O=[N+]([O-])O[C@H]1CO[C@H]2[C@@H]1OC[C@H]2O[N+](=O)[O-] [ISDN, isosorbide dinitrate]
- percutaneous absorption of ISDN: percutaneous absorbability of ISDN was confirmed; also recorded: percutaneous absorption of ISDN was confirmed
